In patent US20100184815A1 (priority 2008, published 2010):

These molecules were tested against T1, Full Length hPPARβ/δ (Homo sapiens, UniProt Q03181) (assay: Full length hPPARβ/δ transfection assay). Details: full length receptor; scale 1-5; read-out: Full Length hPPAR β/δ EC50 (scaled number).
T1 construct: Full Length; expressed in transfected cells; host or cells: Cos cells
T1 sequence (Q03181 1-441): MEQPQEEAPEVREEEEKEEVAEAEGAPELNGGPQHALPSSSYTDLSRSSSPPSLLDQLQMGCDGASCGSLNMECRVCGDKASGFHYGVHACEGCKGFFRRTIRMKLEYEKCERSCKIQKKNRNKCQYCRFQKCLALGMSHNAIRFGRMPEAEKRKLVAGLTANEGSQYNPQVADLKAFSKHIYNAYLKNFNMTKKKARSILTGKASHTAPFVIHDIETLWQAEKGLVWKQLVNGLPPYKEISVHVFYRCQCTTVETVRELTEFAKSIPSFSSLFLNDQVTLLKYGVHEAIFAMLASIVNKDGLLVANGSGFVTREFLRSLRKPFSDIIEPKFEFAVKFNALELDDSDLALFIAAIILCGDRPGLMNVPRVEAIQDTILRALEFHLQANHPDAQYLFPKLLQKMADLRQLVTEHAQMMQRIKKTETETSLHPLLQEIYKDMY
Assay type: cell-based
Method: Transient transfection assays. Cos cells were seeded in 60-mm dishes at a density of 5.5×10^5 cells/dish in Dulbecco's modified Eagle's medium (DMEM) supplemented with 10% fetal calf serum (FCS) and incubated at 37° C. for 24 hours before transfection. Cells were transfected in Opti-MEM (Gibco; Invitrogen, Carlsbad, Calif.) without FCS for 3 hours at 37° C., using polyethylenimine, with reporter and expression plasmids. The plasmid pBluescript (Stratagene, La Jolla, Calif.) was used as carrier DNA to set the final amount of DNA to 5.5 μg/dish. The pCMV-b-galactosidase expression plasmid was cotransfected as a control for transfection efficiency. Transfection was stopped by the addition of DMEM supplemented with 10% FCS, and cells were then incubated at 37° C. After 16 hours, cells were trypsinized and seeded in 96-well plates at the density of 2×10^4 cells/well and incubated for 6 hours in 10% FCS-containing DMEM. Cells were then incubated for 24 hours in DMEM containing 0.2% FCS and increasing concentrations of the compound tested or vehicle (DMSO). At the end of the experiment, cells were washed once with ice-cold PBS, lysed and the luciferase and b-galactosidase assays were performed in a luminometer and spectrophotomer. Transfection efficiencies were normalized with the b-galactosidase activity assay. Half-maximal effective concentration (EC50) was estimated using Prism software (GraphPad). All transfection experiments were performed at least three times.
In the following tables, proprietary compound EC50 values for hPPAR α, β, δ and γ are shown. The EC50 value is the concentration of a drug that induces a response halfway between the baseline and maximum, and is commonly used as a measure of drug potency. EC50 values are reported on a scale of 1 through 5, wherein the value scale is defined for each receptor as follows: […]
`CCCCCCn1c(COC(=O)c2ccc(SC(C)(C)C(=O)O)cc2)nn(Cc2ccc(C)cc2)c1=O` [Compound 160, 2-(4-(((4-hexyl-1-(4-methylbenzyl)-5-oxo-4,5-dihydro-1H-1,2,4-triazol-3-yl)methoxy)carbonyl)phenylthio)-2-methylpropanoic acid] was tested, and the EC50 was 201 to 999 nM. Work on `CCCCCCCn1c(COC(=O)c2ccc(SC(C)(C)C(=O)O)cc2)nn(Cc2ccc(C)cc2)c1=O` [Compound 191, 2-(4-(((4-heptyl-1-(4-methylbenzyl)-5-oxo-4,5-dihydro-1H-1,2,4-triazol-3-yl)methoxy)carbonyl)phenylthio)-2-methylpropanoic acid] yielded an EC50 of 51 to 200 nM. `CCCCCCCCn1c(COC(=O)c2ccc(SC(C)(C)C(=O)O)cc2)nn(Cc2ccc(C)cc2)c1=O` [Compound 161, 2-methyl-2-(4-(((1-(4-methylbenzyl)-4-octyl-5-oxo-4,5-dihydro-1H-1,2,4-triazol-3-yl)methoxy)carbonyl)phenylthio)propanoic acid] showed an EC50 of 201 to 999 nM.
